In brackets after ≈: the same amount, converted by molar mass.
Assays:
[1] = test system: CCD-19Lu human normal pneumocyte; experiment: Cell proliferation inhibition (MTT), CCD-19Lu; assay type: cell-based
Procedure: (§1) To each well of a 96 well microtiter plate, the pre-determined number of various cell strains (0.1 ml) were added and pre-cultivated for a day under the same cultivation conditions as Experiment 1. To each well, 0.1 ml of the compound (I-1) was added so that the concentration was in the range of 0-10,000 ng/ml. After the cultivation for 3-4 days, 25 μl of 6 mg/ml MTT [3-(4,5-dimethylthiazol-2-yl)-2,5-diphenyltetrazolium bromide] (Sigma) solution was added to each well and the cells were cultivated at 37° C. for 4 hours under the same conditions as above. After the cultivation, 50 μl of 0.02 N hydrochloric acid solution of 20% sodium dodecyl sulfate was added to formazan generated and left at 37° C. for 24 hours for dissolving formazan. An absorption intensity (OD) of formazan generated in proportion to the number of living cells was measured with an immunoreader (InterMed) equipped with a 570 nm filter (The Journal of Immunological Method, No.65, p.55-63, 1983). The 50% inhibitory concentration of a cell proliferation (IC 50) was calculated from a correlation between a concentration of the compound (I-1) and absorption intensity.

[2] = Solubility (characterisation data); assay type: physicochemical
[3] = test system: P388 mouse leukemia cell; experiment: Cell proliferation inhibition (MTT), P388; assay type: cell-based
Procedure: as §1

[4] = test system: Lu-99 human large cell lung cancer; experiment: Cell proliferation inhibition (MTT), Lu-99; assay type: cell-based
Procedure: as §1

[5] = test system: BDF1 mouse splenocytes; experiment: Suppression of the concanavalin A (Con A) mitogen reaction of mouse splenocytes, 3H-thymidine uptake; assay type: cell-based; design: Radioactivity cpm ± SD: dose or concentration left out as unconfirmed; conditions: for inhibition at 0.25 µg/mL: Mus musculus, Splenocyte, 48 h, Con A 5 μg/ml, compound 250.0 ng/ml
[6] = test system: CCFR-CEM human leukemia cell; experiment: Cell proliferation inhibition (MTT), CCFR-CEM; assay type: cell-based
Procedure: as §1

[7] = test system: BDF1 mouse splenocytes; experiment: Suppression of the concanavalin A (Con A) mitogen reaction of mouse splenocytes, 3H-thymidine uptake; assay type: cell-based; conditions: for Radioactivity cpm ± SD / inhibition at 0.00025 µg/mL / inhibition at 0.00098 µg/mL / inhibition at 0.00391 µg/mL / inhibition at 0.0156 µg/mL / inhibition at 0.0625 µg/mL: Con A 5 μg/ml, 48 h; for Radioactivity cpm ± SD: 3H-thymidine; for inhibition at 0.00025 µg/mL / inhibition at 0.00098 µg/mL / inhibition at 0.00391 µg/mL / inhibition at 0.0156 µg/mL / inhibition at 0.0625 µg/mL: Mus musculus; for inhibition at 0.00025 µg/mL / inhibition at 0.00098 µg/mL / inhibition at 0.00391 µg/mL / inhibition at 0.0156 µg/mL / inhibition at 0.0625 µg/mL / IC50: Splenocyte; for IC50: Con A reaction of mouse splenocytes; for Suppression of the Con A reaction of mouse splenocytes (in words): depending on the compound concentration
Procedure: (§2) To each well of a 96 well microtiter plate were added 5×10^5 BDF1 mouse splenocytes suspended in 0.1 ml of 10% fetal calf serum-fortifed RPMI 1640 medium (2 mM of sodium bicarbonate, 50 units/ml of penicillin, 50 μg/ml of streptomycin and 5×10^-5 M of 2-mercaptethanol were added) were added. To each well, 5 μg/ml of Con A as a mitogen and the compound (I-1), (I-2) or (I-3) of a pre-determined concentration were added so that a final volume of each well reached 0.2 ml. Each compound of the present invention was dissolved in dimethylsulfoxide (DMSO) and diluted with the above RPMI 1640 medium to adjust the final concentration to 100 ng/ml or less. The splenocytes in the 96 well microtiter plate were cultivated at 37° C. for 48 hours in an incubator keeping the humidity 100%, carbon dioxide 5% and air 95%. The cells were pulse-labeledwith 3H-thymidine (18.5 Kbq/well) before 6 hours of harvest. After the cultivation, the cells were collected by a cell harvester and radioactivity taken in the cells was measured for being used as an indicator of a cell proliferation activity. Con A-free (--Con A) medium was used as a control.

[8] = test system: BDF1 mouse splenocytes; experiment: Suppression of the lipopolysaccharide (LPS) reaction of mouse splenocytes, 3H-thymidine uptake; assay type: cell-based; conditions: for Radioactivity cpm ± SD / inhibition at 0.00098 µg/mL / inhibition at 0.00391 µg/mL / inhibition at 0.0156 µg/mL / inhibition at 0.0625 µg/mL / inhibition at 0.25 µg/mL: LPS 10 μg/ml; for Radioactivity cpm ± SD: 3H-thymidine; for inhibition at 0.00098 µg/mL / inhibition at 0.00391 µg/mL / inhibition at 0.0156 µg/mL / inhibition at 0.0625 µg/mL / inhibition at 0.25 µg/mL: Mus musculus, 48 h; for inhibition at 0.00098 µg/mL / inhibition at 0.00391 µg/mL / inhibition at 0.0156 µg/mL / inhibition at 0.0625 µg/mL / inhibition at 0.25 µg/mL / IC50: Splenocyte; for IC50: LPS reaction of mouse splenocytes; for Suppressive effect on the LPS reaction of mouse splenocytes (in words): depends on the compound concentration
Procedure: as §2, with “Each compound of the present invention was dissolved in dimethylsulfoxide (DMSO) and diluted with the above RPMI 1640 medium to adjust the final concentration to 100 ng/ml or less.” left out
By the same method as described in above 1-1 except that lipopolysaccharide (LPS, 10 μg/ml) was used in spite of concanavalin A, a suppression of the reaction was examined. LPS-free (--LPS) medium was used as a control.

Solubility in acetone, ethyl acetate and chloroform [2]	Solubility in water [2]	IC50 [7]	Compound	Radioactivity cpm ± SD [5]	inhibition at 0.25 µg/mL [5]	Radioactivity cpm ± SD ([7]; compound 0.25 ng/ml)	Radioactivity cpm ± SD ([7]; compound 0.98 ng/ml)	Radioactivity cpm ± SD ([7]; compound 3.91 ng/ml)	Radioactivity cpm ± SD ([7]; compound 15.6 ng/ml)	Radioactivity cpm ± SD ([7]; compound 62.5 ng/ml)	inhibition at 0.00025 µg/mL ([7]; compound 0.25 ng/ml)	inhibition at 0.00098 µg/mL ([7]; compound 0.98 ng/ml)	inhibition at 0.00391 µg/mL ([7]; compound 3.91 ng/ml)	inhibition at 0.0156 µg/mL ([7]; compound 15.6 ng/ml)	inhibition at 0.0625 µg/mL ([7]; compound 62.5 ng/ml)	Suppression of the Con A reaction of mouse splenocytes (in words) [7]	Radioactivity cpm ± SD ([8]; compound 0.98 ng/ml)	Radioactivity cpm ± SD ([8]; compound 3.91 ng/ml)	Radioactivity cpm ± SD ([8]; compound 15.6 ng/ml)	Radioactivity cpm ± SD ([8]; compound 62.5 ng/ml)	other results
soluble	insoluble	1.2 ng/mL (≈ 0.00284 µM)	COc1cc(-c2ccc(O)cc2)c(OC)c(O)c1-c1ccc(OCC=C(C)C)c(O)c1 [Compound I-1, 3',6'-dimethoxy-4-(3-methyl-2-butenyloxy) -[1,1':4',1"] terphenyl-3,2',4"-triol]	6404 ± 403 cpm	98.9%	292470 ± 542 cpm	210046 ± 3288 cpm	56871 ± 1554 cpm	11366 ± 372 cpm	6411 ± 246 cpm	-5.6%	24.5%	80.5%	97.1%	98.9%	significantly suppressed	153396 ± 6123 cpm	88405 ± 10394 cpm	32548 ± 315 cpm	16070 ± 944 cpm	IC50 ([1]; Homo sapiens, CCD-19Lu, MEM, 2 × 10^4 cells/well, MTT, 3-4 days, read-out: IC50 (ng/ml) of cell proliferation): > 10000 ng/mL; Antiproliferative activity (in words) ([1]; normal pneumocyte CCD-19Lu): not on the normal pneumocyte CCD-19Lu; IC50 ([3]; Mus musculus, P388, RPMI 1640, 5 × 10^2 cells/well, MTT, 3-4 days, read-out: IC50 (ng/ml) of cell proliferation): 12 ng/mL (≈ 0.0284 µM); Antiproliferative activity (in words) ([3]; tumor cells (P388)): has an antiproliferative activity on the tumor cells; IC50 ([4]; Homo sapiens, Lu-99, RPMI 1640, 2 × 10^3 cells/well, MTT, 3-4 days, read-out: IC50 (ng/ml) of cell proliferation): 1 ng/mL (≈ 0.00237 µM); Antiproliferative activity (in words) ([4]; tumor cells (Lu-99)): has an antiproliferative activity on the tumor cells; IC50 ([6]; Homo sapiens, CCFR-CEM, RPMI 1640, 5 × 10^3 cells/well, MTT, 3-4 days, read-out: IC50 (ng/ml) of cell proliferation): 0.2 ng/mL (≈ 0.000473 µM); Antiproliferative activity (in words) ([6]; tumor cells (CCFR-CEM)): has an antiproliferative activity on the tumor cells; Radioactivity cpm ± SD ([8]; compound 250.0 ng/ml): 15046 ± 344 cpm; inhibition at 0.00098 µg/mL ([8]; compound 0.98 ng/ml): 0.3%; inhibition at 0.00391 µg/mL ([8]; compound 3.91 ng/ml): 43.4%; inhibition at 0.0156 µg/mL ([8]; compound 15.6 ng/ml): 80.4%; inhibition at 0.0625 µg/mL ([8]; compound 62.5 ng/ml): 91.3%; inhibition at 0.25 µg/mL ([8]; compound 250.0 ng/ml): 92%; IC50 [8]: 4.5 ng/mL (≈ 0.0107 µM); Suppressive effect on the LPS reaction of mouse splenocytes (in words) [8]: potent suppressive effect
soluble	insoluble	5.6 ng/mL (≈ 0.0138 µM)	COc1cc(-c2ccccc2)c(OC)c(O)c1-c1ccc(OCC=C(C)C)c(O)c1 [Compound I-2, 3',6'-dimethoxy-4-(3-methyl-2-butenyloxy)-[1,1';4',1"] terphenyl-3,2'-diol]	8233 ± 254 cpm	98.2%	281904 ± 6522 cpm	281371 ± 10119 cpm	191575 ± 6969 cpm	41660 ± 531 cpm	11793 ± 235 cpm	-1.8%	-1.6%	30.9%	86%	96.9%	significantly suppressed	208023 ± 8941 cpm	132834 ± 5106 cpm	78686 ± 4135 cpm	39824 ± 651 cpm	Radioactivity cpm ± SD ([8]; compound 250.0 ng/ml): 22312 ± 1122 cpm; inhibition at 0.00098 µg/mL ([8]; compound 0.98 ng/ml): -35.9%; inhibition at 0.00391 µg/mL ([8]; compound 3.91 ng/ml): 13.9%; inhibition at 0.0156 µg/mL ([8]; compound 15.6 ng/ml): 49.8%; inhibition at 0.0625 µg/mL ([8]; compound 62.5 ng/ml): 75.6%; inhibition at 0.25 µg/mL ([8]; compound 250.0 ng/ml): 87.2%; IC50 [8]: 15.6 ng/mL (≈ 0.0384 µM); Suppressive effect on the LPS reaction of mouse splenocytes (in words) [8]: potent suppressive effect
soluble	insoluble	2 ng/mL (≈ 0.00458 µM)	COc1cc(-c2c(OC)cc(-c3ccc(O)cc3)c(OC)c2O)ccc1OCC=C(C)C [Compound I-3, 3,3',6'-trimethoxy-4-(3-methyl-2-butenyloxy)-[1,1';4',1"] terphenyl-2',4"-diol]	7522 ± 485 cpm	98.5%	285408 ± 7252 cpm	266173 ± 6208 cpm	101504 ± 1326 cpm	20510 ± 287 cpm	7755 ± 624 cpm	-3.1%	4%	64.2%	93.8%	98.4%	significantly suppressed	184366 ± 10625 cpm	128436 ± 4167 cpm	46765 ± 2209 cpm	22961 ± 1187 cpm	Radioactivity cpm ± SD ([8]; compound 250.0 ng/ml): 14962 ± 866 cpm; inhibition at 0.00098 µg/mL ([8]; compound 0.98 ng/ml): -20.2%; inhibition at 0.00391 µg/mL ([8]; compound 3.91 ng/ml): 16.8%; inhibition at 0.0156 µg/mL ([8]; compound 15.6 ng/ml): 71%; inhibition at 0.0625 µg/mL ([8]; compound 62.5 ng/ml): 86.7%; inhibition at 0.25 µg/mL ([8]; compound 250.0 ng/ml): 92%; IC50 [8]: 8 ng/mL (≈ 0.0183 µM); Suppressive effect on the LPS reaction of mouse splenocytes (in words) [8]: potent suppressive effect

Reference: patent US6291231A, “Microorganism producing terphenyl compounds” (Shionogi & Co., Ltd., priority 1996, dated 2001)
